According to patent US6534480B2, “Compositions for increasing energy in vivo” (Bioenergy Inc., priority 1999, dated 2003):

Key:
[1] = Self administration of ribose, subject with low energy after systemic bacterial infection; assay type: in vivo, human
Description: An example of a subject having no overt disease who benefitted from self-administered ribose is a person. They had adhered to a strict weekly exercise regimen most of their life until sustaining a systemic bacterial infection, which required admission to the intensive care unit for one month and rehabilitation for an additional month. Their cardiovascular and pulmonary systems were predominantly affected during and following their illness and function had not recovered to its previous levels, or to their satisfaction, after one year.
Following convalescence, they have attempted to resume an exercise regimen, which involves running on a treadmill four days a week and lifting weights for two days a week. The runs were restricted to short intervals. Following the daily exercises, they have continuously experienced fatigue to the point of exhaustion and has required frequent naps. The patient began self-administering oral D-ribose at two doses per day, 4-5 grams per dose. Within seven days, they testified that their “pep” and exercise tolerance increased. For the first time since their illness, they are able to run as long as 30 minutes on the treadmill. They still experience a Degree of fatigue, but has been able to discontinue the naps after exercise. They continue on the daily oral doses of ribose, along with their scheduled exercises and feels a continuing improvement in their energy level after four weeks of ribose administration.

ATP [2] = experiment: ATP in vastis lateralis muscle biopsies (Ribose Athlete Study); assay type: in vivo, human; details: for ATP Recovery % of Pre: 48 hours recovery vs initial level
Protocol: Four healthy, fit subjects in the age range 24 to 26 years of age were tested. The group was selected to be homogeneous regarding fitness level, gender and mean age with no known metabolic, neuronal, endocrine or cardiopulmonary disorders. All were capable of or had experience with cycling. The study protocol included four phases: (1) an initial baseline phase consisting of no exercise session; (2) a loading phase including three days of administration of either D-ribose or placebo (glucose) three times per day; (3) a training phase of three days employing exercise sessions characterized by serial (N=6) bouts of short (10 second) high-intensity cycle sprints at 7% body mass resistance with 50 second rest periods between sprints twice per day (morning and afternoon), and (4) a recovery phase for a period of 48 hours after the final training session. FIG. 1 is a diagram of a single cycle sprint bout. Muscle biopsies (MB) were performed on the […] lateralis muscle using both legs in order to evenly distribute and minimize sampling and possible muscle soreness per leg due to the biopsy itself. The first MB was collected at rest at the beginning of the study to establish a baseline and immediately after the first training-session of day 0 or the first phase. During the loading phase, no MB was taken. Muscle Biposies were taken following the final training session and after 48 hours of recovery. Two subjects were randomly selected for inclusion into the placebo or ribose group. Ribose or glucose was administered orally in a 250 ml iso-osmotic solution containing 10.0 grams of either ribose or placebo three times per day for three days preceding training (loading phase) and for three days during training (training phase). One-half liter isotonic electrolyte solution was given immediately post exercise and again 30 minutes later to avoid dehydration. The concentration of the following analytes was determined in the MB samples: ATP, ADP, AMP, IMP (inosine monophosphate), TAN (total adenine nucleotides), creatine phosphate and creatine.

ATP [3] = details: heart recovering from ischemia, intravenous perfusion; cited from earlier work
adenine salvage pathway = experiment: Adenine salvage (formation of ATP) in perfused resting rat plantaris muscle, ribose dose response; assay type: in vivo, Sprague-Dawley rats; details: for salvage of adenine (formation of ATP), Observed: 30 minutes
Protocol: It has been theorized but not objectively shown that ribose, via PRPP synthesis, increases the rate of ATP synthesis via the nucleotide salvage pathway. […] The muscle was perfused with reconstituted blood medium at ˜40 ml/min, providing tissue perfusion of approximately 0.65 ml/min. Varying concentrations of D-ribose were added to the perfusate to bring the concentration to 0.156 mM, 0.5 mM, 1.58 mM, 5.0 mM and 15.0 mM. The muscle was perfused for 30 minutes. A minimum of two rats was used for analysis at each dose of ribose tested. Following perfusion, muscle sections were quickly dissected from the limb and freeze-clamped with aluminum tongs chilled in liquid nitrogen. Muscle sections were lyophilized and reconstituted in distilled water for subsequent-separation of adenine nucleotides by reverse-phase high pressure liquid chromatography. Results are expressed as salvage of adenine (i.e., formation of ATP) in nanomoles salvaged per gram wet weight of muscle per hour (nM/gm/hr).

In the case of `O=C[C@H](O)[C@H](O)[C@H](O)CO` [Ribose, D-ribose], the adverse effects ([1]; four weeks of oral ribose administration) is reported as “no adverse effects”, the “time able to run on the treadmill” value ([1]; oral D-ribose two doses per day, 4-5 grams per dose) is reported as at most 30 min and the “"pep" and exercise tolerance” value ([1]; within seven days of oral D-ribose, two doses per day, 4-5 grams per dose) is reported as “increased”. The “ATP Recovery % of Pre” value (ATP [2]) was 82%, the “ATP Recovery % of Pre” value (ATP [2]; listed as ribose) was 82% and the “ATP Change Post-Rec” value (ATP [2]; in vivo) was 6.90 mmol/kg dw. For the same compound, the “ATP Change Pre-Post” value (ATP [2]; in vivo) was −11.43 mmol/kg dw, the “Mean ATP Values, Recovery” value (ATP [2]; muscle biopsy after 48 hours of recovery) was 20.80 mmol/kg dw and the “Mean ATP Values, Post” value (ATP [2]; muscle biopsy following the final training session) was 13.90 mmol/kg dw. For the same compound, the “Mean ATP Values, Pre” value (ATP [2]; muscle biopsy, after three days ribose loading, before training) was 25.33 mmol/kg dw, the “recovery of ATP levels” value (ATP [3]) was “enhanced” and the “adenine salvage relative to zero mM ribose” value (adenine salvage pathway; 0.158 mM ribose) was “doubles”. For the same compound, the “salvage of adenine, Saturation Kinetics with Base” value (“salvage of adenine … with Base” for short) (adenine salvage pathway; 0.158 mM ribose) was 85.82 nM/gm/hr, the “salvage of adenine (formation of ATP), Observed” value (“salvage of adenine … Observed” for short) (adenine salvage pathway; 0.158 mM ribose in perfusate) was 113.0 nM/gm/hr and the “salvage of adenine … with Base” value (adenine salvage pathway; 0.500 mM ribose) was 118.68 nM/gm/hr. The “salvage of adenine … Observed” value (adenine salvage pathway; 0.500 mM ribose in perfusate) was 110.0 nM/gm/hr, the “salvage of adenine … with Base” value (adenine salvage pathway; 1.000 mM ribose) was 154.12 nM/gm/hr and the “salvage of adenine … with Base” value (adenine salvage pathway; 1.580 mM ribose) was 183.51 nM/gm/hr. The “salvage of adenine … Observed” value (adenine salvage pathway; 1.580 mM ribose in perfusate) was 188.5 nM/gm/hr, the “salvage of adenine … with Base” value (adenine salvage pathway; 2.000 mM ribose) was 199.74 nM/gm/hr and the “salvage of adenine … with Base” value (adenine salvage pathway; 2.500 mM ribose) was 215.29 nM/gm/hr. The “salvage of adenine … with Base” value (adenine salvage pathway; 3.000 mM ribose) was 227.85 nM/gm/hr, the “salvage of adenine … with Base” value (adenine salvage pathway; 5.000 mM ribose) was 260.68 nM/gm/hr and the “salvage of adenine … Observed” value (adenine salvage pathway; 5.000 mM ribose in perfusate) was 250.0 nM/gm/hr. For the same compound, the “salvage of adenine … Observed” value (adenine salvage pathway; 5.000 mM ribose in perfusate, listed as ribose) was 250 nM/gm/hr, the “salvage of adenine … with Base” value (adenine salvage pathway; 15.000 mM ribose) was 310.37 nM/gm/hr and the “salvage of adenine … Observed” value (adenine salvage pathway; 15.000 mM ribose in perfusate) was 315.5 nM/gm/hr.
